# In PMC8873251, “An amiloride derivative is active against the F1Fo-ATP synthase and cytochrome bd oxidase of Mycobacterium tuberculosis” (Communications Biology, 2022):
# What was measured:
# [1] = biological target: T1, F1Fo-ATP synthase c-subunit (c-ring) (Mycolicibacterium phlei, UniProt A0A5N5V239); assay: MALDI-MS time course of covalent c-subunit labelling; format: binding
# T1 construct: gene atpE
# [2] = biological target: T2, cytochrome bd oxidase (Mycobacterium tuberculosis, UniProt L7N662+O06139); assay: malate-driven oxygen consumption in IMVs pre-inhibited with TB47, titration; empty-vector control; format: biochemical
# T2 construct: gene cydA
# T2 sequence (O06139 entry or part of it): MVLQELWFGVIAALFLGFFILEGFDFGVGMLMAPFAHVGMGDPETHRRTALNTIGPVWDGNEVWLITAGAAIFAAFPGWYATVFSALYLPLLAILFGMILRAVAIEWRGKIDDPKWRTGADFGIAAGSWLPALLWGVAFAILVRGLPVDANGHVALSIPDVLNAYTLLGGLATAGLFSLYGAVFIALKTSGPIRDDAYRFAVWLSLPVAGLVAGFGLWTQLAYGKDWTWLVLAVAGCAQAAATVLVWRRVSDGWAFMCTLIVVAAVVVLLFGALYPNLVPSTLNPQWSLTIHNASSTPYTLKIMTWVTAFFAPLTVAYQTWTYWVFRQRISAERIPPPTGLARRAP
# T2 sequence (L7N662 entry or part of it): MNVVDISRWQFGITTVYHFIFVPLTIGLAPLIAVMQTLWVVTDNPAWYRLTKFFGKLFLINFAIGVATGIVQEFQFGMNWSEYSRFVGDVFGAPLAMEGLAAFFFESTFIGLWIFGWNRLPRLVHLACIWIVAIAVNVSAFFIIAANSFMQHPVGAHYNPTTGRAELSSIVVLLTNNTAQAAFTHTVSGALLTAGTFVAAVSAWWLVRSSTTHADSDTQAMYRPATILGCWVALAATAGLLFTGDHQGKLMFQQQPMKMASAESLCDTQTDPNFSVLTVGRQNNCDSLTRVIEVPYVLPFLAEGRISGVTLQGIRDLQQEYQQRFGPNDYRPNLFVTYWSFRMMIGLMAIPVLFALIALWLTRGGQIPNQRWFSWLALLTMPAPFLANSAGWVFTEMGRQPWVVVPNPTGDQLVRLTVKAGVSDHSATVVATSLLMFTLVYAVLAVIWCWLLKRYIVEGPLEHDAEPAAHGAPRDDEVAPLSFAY
# [3] = biological target: T1, F1Fo-ATP synthase c-subunit (c-ring); assay: MALDI-MS competition with DCCD labelling of purified c-ring; format: binding
# T1 sequence (A0A5N5V239 1-86): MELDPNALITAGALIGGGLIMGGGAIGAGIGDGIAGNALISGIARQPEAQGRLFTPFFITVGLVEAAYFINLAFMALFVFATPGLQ
smiles,measurement,setting,value
"C(=NC1CCCCC1)=NC1CCCCC1 [DCCD, N,N'-dicyclohexylcarbodiimide]",MALDI-MS time course of covalent c-subunit labelling,[1],Time course of DCCD labelling in purified M. phlei c-rings in the presence of the indicated amounts of HMA
N=C(N)NC(=O)c1nc(-c2cc3ccccc3o2)c(N)nc1N [HM2-16F],IC50,[2],21.2 µM
"N=C(N)NC(=O)c1nc(Cl)c(N2CCCCCC2)nc1N [HMA, 5-(N,N-hexamethylene)amiloride]",MALDI-MS competition with DCCD labelling of purified c-ring,[3],HMA was able to outcompete the canonical c-ring covalent inhibitor DCCD for inhibition of the M. phlei F1Fo-ATP synthase c-subunit
